For 54 compounds, photoluminescence quantum yield results are on record in the Deep4Chem optical property database.

A short description of this series: photoluminescence quantum yield (fraction); solvent given as SMILES.
[1] abbreviates: in O=P(c1ccccc1)(c1ccccc1)c1ccccc1Oc1ccccc1P(=O)(c1ccccc1)c1ccccc1.

Compound `FC(F)(F)c1ccc(-c2ncc3ccccn23)cc1` yielded a photoluminescence quantum yield (in ClC(Cl)Cl) of 0.04.

Regarding `Cc1ccc(/C=C/c2nc3ccccc3s2)cc1`, the photoluminescence quantum yield is, setting by setting: (in C1CCCCC1) 0.02; (in CO) 0.003.

For the setting “in CC#N”, `COC(=O)C12N=N[C@](C(=O)OC)(C3C4CCC(C4)C31)C1[C@@H]3CC[C@@H](C3)[C@H]12` (stereo partly specified) came in with a photoluminescence quantum yield of 0.09.

For the compound `CCCCCCc1ccc(-n2c3c4cccc(OC)c4nc(-c4ccc(C#N)cc4)c3c3c2c2c(-c4ccc(C#N)cc4)nc4c(OC)cccc4c2n3-c2ccc(CCCCCC)cc2)cc1`, the photoluminescence quantum yield (in ClC(Cl)Cl) stood at 0.13.

On to `FC(F)(F)C(F)(F)C(F)(F)C1=NC2=C(c3ccccc3)C=C3c4cc(-c5ccccc5)c5nc(C(F)(F)C(F)(F)C(F)(F)F)nc6c(-c7ccccc7)cc(c4c56)=C4C=C(c5ccccc5)C(=N1)C2C34` (stereo unspecified), for which, for the setting “in C1CCOC1”, the photoluminescence quantum yield is 0.85.

In turn, `C(=C1c2ccccc2CCc2ccccc21)c1ccc(-c2cc(-c3ccc(C=C4c5ccccc5CCc5ccccc54)cc3)cc(-c3ccc(C=C4c5ccccc5CCc5ccccc54)cc3)c2)cc1` had a photoluminescence quantum yield (in C1CCOC1) of 0.0045.

Where the note is “in CC#N”, `COc1ccc(C2=[O+][B-](F)(F)OC(c3ccc4c(c3)Cc3ccccc3-4)=C2)cc1` showed a photoluminescence quantum yield of 0.94.

In the case of `C/C(=C\c1ccc(Cl)cc1)c1nc2ccccc2o1`, the photoluminescence quantum yield is, setting by setting: (in C1CCCCC1) 0.02; (in CO) 0.003.

For the setting “in ClC(Cl)Cl”, `CC(C)(C)NC(=O)c1cc2ccc3cccc4ccc(c1C(=O)NC(C)(C)C)c2c34` gave a photoluminescence quantum yield of 0.39.

`Cc1cc(C)c(C2=C3C=C(/C=C/C(=O)OCc4ccccc4)C=[N+]3[B-](F)(F)n3cccc32)c(C)c1` returned a photoluminescence quantum yield (in ClCCl) of 0.36.

With `CN(C)CCCN1c2ccccc2CCc2ccccc21`, the photoluminescence quantum yield (in CC#N) came to 0.012, the photoluminescence quantum yield (in CO) is 0.01 and the photoluminescence quantum yield (in O) stood at 0.021.

For the setting “in CO”, `N[C@@H](Cn1nnc2cc(-c3ccc4c(c3)OCO4)ccc21)C(=O)O` displayed a photoluminescence quantum yield of 0.02.

For `CCCCC(CC)Cn1c2cc(C#N)ccc2c2ccc(C#Cc3ccc4ccc5c(C#Cc6ccc7c8ccc(C#N)cc8n(CC(CC)CCCC)c7c6)cc(C#Cc6ccc7c8ccc(C#N)cc8n(CC(CC)CCCC)c7c6)c6ccc3c4c56)cc21` (stereo unspecified), the photoluminescence quantum yield (in ClCCl) came out at 0.64.

`F[B-]1(F)N2C=CN=CC2=[N+]2[N+]1=Cc1c(-c3ccccc3)cc(-c3ccccc3)n1[B-]2(F)F`: the photoluminescence quantum yield (in ClCCl) worked out at 0.49.

In the case of `COc1cc(OC)cc(C(=O)OCc2c(C)c(=O)n3c(=O)c(C)c(C)n23)c1`, for the setting “in CCO”, the photoluminescence quantum yield was found to be 0.638.

Consider `F[B-]1(F)OC(c2ccc(Br)cc2)=Cc2c3ccccc3c3ccccc3[n+]21`, for which the photoluminescence quantum yield (in ClC(Cl)Cl) was found to be 0.152.

In turn, `CC(C)(C)c1ccc2c(c1)c1cc(C(C)(C)C)ccc1n2-c1cc[n+]2c(c1)-c1ccccc1O[B-]2(F)F` returned a photoluminescence quantum yield under setting [1] of 0.74.

Regarding `CCn1c2ccccc2c2c(C#N)c3c(ccc4c3cnn4C)nc21`, the photoluminescence quantum yield (in CCOC(C)=O) was found to be 0.45.

For the setting “in ClC(Cl)Cl”, `CCCCCCCCCCCCOc1cc2c3c(ccc4c5c(OCCCCCCCCCCCC)cc6c7c(ccc(c1c34)c75)C(=O)N(C1CCCCC1)C6=O)C(=O)N(C1CCCCC1)C2=O` registered a photoluminescence quantum yield of 0.724.

For the compound `O=[N+]([O-])c1ccc(C#Cc2ccc3ccc(C#Cc4ccc([N+](=O)[O-])cc4)cc3c2)cc1`, the photoluminescence quantum yield (in ClCCl) came out at 0.007.

`c1cc2ccc1-c1ccc(cc1)-c1ccc([se]1)-c1ccc(cc1)-c1ccc(cc1)-c1ccc([se]1)-c1ccc(cc1)-c1ccc(cc1)-c1ccc([se]1)-c1ccc(cc1)-c1ccc(cc1)-c1ccc-2[se]1` returned a photoluminescence quantum yield (in C1CCOC1) of 0.13.

As for `CN(C)c1ccc(C2=Nc3sc4cc(F)ccc4[n+]3[B-](F)(F)O2)cc1`, the photoluminescence quantum yield runs as follows: (in C1CCOC1) 0.72; (in CC#N) 0.13; (in CC(C)=O) 0.23; (in Cc1ccccc1) 0.85; (in ClCCl) 0.74.

For the setting “in CN(C)C=O”, `Nc1ccc(N2C(=O)c3ccc4c5ccc6c7c(ccc(c8ccc(c3c48)C2=O)c75)C(=O)N(c2ccc(N)cc2)C6=O)cc1` displayed a photoluminescence quantum yield of 0.2.

In the case of `O=C1OC(=O)c2ccc(N(c3ccccc3)c3ccc4ccccc4c3)c3cccc1c23`, the photoluminescence quantum yield stood at 0.0003 (in C1CCOC1), 0.335 (in CCCCCC) and 0.0162 (in c1ccccc1).

Compound `C(S/C=C/c1ccc(-c2ccc(/C=C/SC=C3CCCC3)cc2)cc1)=C1CCCC1` returned a photoluminescence quantum yield (in ClCCl) of 0.182.

Compound `Cc1cc(N(C)C)ccc1C1=C2C=CC(=[N+](C)C)C=C2[Si](C)(C)c2cc(N(C)C)ccc21` yielded a photoluminescence quantum yield (in O) of 0.001.

In turn, `CC(C)(C)c1ccc(-c2ccc3c(-c4ccc(C(C)(C)C)c5ccccc45)cc4c5cc(-c6ccc(C(C)(C)C)c7ccccc67)ccc5c(-c5ccc(C(C)(C)C)c6ccccc56)cc4c3c2)c2ccccc12` had a photoluminescence quantum yield (in ClCCl) of 0.72.

Consider `CCC1=C(C)C(=O)n2c1cc1[nH]c(C(=O)OC(C)(C)C)c(C)c1c2=O`, for which the photoluminescence quantum yield reads like this: (in C1CCCCC1) 0.03; (in CO) 0.71; (in CS(C)=O) 0.86; (in ClC(Cl)Cl) 0.72; (in c1ccccc1) 0.16.

`COc1cc(C2=C(c3cc(OC)c(OC)c(OC)c3)C(c3ccc(C(C)(C)C)cc3)=[N+]3C2=Nc2c(-c4cc(OC)c(OC)c(OC)c4)c(-c4cc(OC)c(OC)c(OC)c4)c(-c4ccc(C(C)(C)C)cc4)n2[B-]3(F)F)cc(OC)c1OC` yielded a photoluminescence quantum yield (in Cc1ccccc1) of 0.001.

For `CC1(C)c2ccccc2N(c2ccc3c(c2)Oc2ccccc2S3(=O)=O)c2ccccc21`, the photoluminescence quantum yield by setting is: (in Cc1ccccc1) 0.48; under setting [1], 0.98.

Consider `FC(F)(F)c1cc2n(n1)[B-](c1ccccc1)(c1ccccc1)[n+]1ccc3ccccc3c1-2`, for which the photoluminescence quantum yield runs as follows: (in C1CCCCC1) 0.999; (in Cc1ccccc1) 0.712; (in ClCCl) 0.778.

As for `C[Si](C)(C)c1cccc2ccccc12`, the photoluminescence quantum yield (in C1CCCCC1) is 0.3.

Consider `Cc1ccccc1`, for which the photoluminescence quantum yield (in C1CCCCC1) came to 0.22.

Consider `CC(C)(C)C1CCC(=CS/C=C/c2ccc(-c3ccc(/C=C/SC=C4CCC(C(C)(C)C)CC4)cc3)cc2)CC1` (stereo unspecified), for which the photoluminescence quantum yield (in ClCCl) was 0.233.

Consider `COc1ccc(OC)c(C=O)c1`, for which the photoluminescence quantum yield by setting is: (in C1CCOC1) 0.0001; (in C1COCCO1) 0.0001; (in CC#N) 0.0001; (in CC(C)=O) 0.01; (in CCCO) 0.31; (in CCO) 0.26. Also, the photoluminescence quantum yield (in CN(C)C=O) worked out at 0.0001; the photoluminescence quantum yield (in CN(C)P(=O)(N(C)C)N(C)C) was determined as 0.0001; the photoluminescence quantum yield (in CNC=O) was 0.11; the photoluminescence quantum yield (in CO) came to 0.22; the photoluminescence quantum yield (in CS(C)=O) came to 0.04; the photoluminescence quantum yield (in ClC(Cl)Cl) was 0.01. Besides, under “in NC=O”, the photoluminescence quantum yield is 0.48.

Under “in ClCCl”, `CN(C)c1ccc(-c2cc(-c3ccc(C#N)cc3)nn2C)cc1` showed a photoluminescence quantum yield of 0.21.

On to `CC(C)c1cc(C(C)C)c(B2c3ccccc3Oc3cc(N4c5ccccc5C5(c6ccccc6-c6ccccc65)c5ccccc54)ccc32)c(C(C)C)c1`, for which the photoluminescence quantum yield (in Cc1ccccc1) was 0.76.

For the setting “in C1COCCO1”, `COc1ccc(-c2ccc(-c3ccc(F)cc3)cc2)cc1` came in with a photoluminescence quantum yield of 0.57.

The compound `Cc1cc(C)c(B(c2ccc(N(c3ccccc3)c3ccccc3)cc2)c2c(C)cc(C)cc2C)c(C)c1` came in with a photoluminescence quantum yield (in Cc1ccccc1) of 0.91.

`CCCCCCc1ccc2c3c(ccc2c1)O[B-](F)(F)[N+](c1ccc([N+]2=Cc4c(ccc5cc(CCCCCC)ccc45)O[B-]2(F)F)cc1)=C3` yielded a photoluminescence quantum yield (in C1CCOC1) of 0.35, a photoluminescence quantum yield (in CC#N) of 0.3, a photoluminescence quantum yield (in Cc1ccccc1) of 0.43 and a photoluminescence quantum yield (in ClCCl) of 0.44.

The compound `COc1ccc(C2=N/C(=C\c3ccccc3)C(=O)N2)cc1OC` yielded a photoluminescence quantum yield (in C1COCCO1) of 0.034.

Take `CC(C)(C)c1cc2ccc3cc(C(C)(C)C)cc4c(N(c5ccccc5)c5ccccc5)cc(c1)c2c34`: the photoluminescence quantum yield (in CCCCCC) was determined as 0.24.

As to `C[P+](c1c2ccccc2cc2ccccc12)(c1c2ccccc2cc2ccccc12)c1c2ccccc2cc2ccccc12`, where the note is “in C1CCOC1”, the photoluminescence quantum yield amounted to 0.0077.

For the compound `c1ccc(N(c2ccccc2)c2ccc(-c3ncc(-c4cnc(-c5ccc(N(c6ccccc6)c6ccccc6)cc5)s4)s3)cc2)cc1`, for the setting “in CO”, the photoluminescence quantum yield was 0.2.

In the case of `Cc1ccccc1C1=C2C=c3c(oc4ccc(C(C)(C)C)cc34)=[N+]2[B-](F)(F)n2c1cc1c3cc(C(C)(C)C)ccc3oc12`, the photoluminescence quantum yield (in C1CCCCC1) came out at 0.89, the photoluminescence quantum yield (in CCOC(C)=O) was 0.93 and the photoluminescence quantum yield (in CO) came to 0.86.

For the compound `CCOC(=O)C1=C(C(=O)OCC)C2(c3ccccc3-c3c(Br)cc(Br)cc32)C2(/C=C/c3ccc(Cl)cc3)c3cc(OC)c(OC)cc3CCN12` (stereo unspecified), under “in ClCCl”, the photoluminescence quantum yield was 0.00075.

Under “in CC#N”, `c1ccc(-[c+]2c3ccccc3oc3ccccc32)cc1` showed a photoluminescence quantum yield of 0.47.

Where the note is “in C1CCCCC1”, `COc1ccc(C2=C(c3ccc(OC)cc3)C(C)(C)c3c2ccc2ccccc32)cc1` yielded a photoluminescence quantum yield of 0.11.

Compound `CC[n+]1c(C=C2C(=O)C(C=C3N(C)c4ccccc4C3(C)C)=C2[O-])[se]c2ccccc21` had a photoluminescence quantum yield (in CC(C)O) of 0.11.

For the setting “in CO”, `C(=C\c1c[nH]c2ccc(Oc3ccccc3)cc12)/C1=[NH+]c2cccc3cccc1c23` had a photoluminescence quantum yield of 0.0644.

Compound `C(=C1c2ccccc2-c2ccccc21)c1ccc(C=C2c3ccccc3-c3ccccc32)cc1` had a photoluminescence quantum yield (in C1CCOC1) of 0.0003.

As to `O=[N+]([O-])c1ccc([N+]2=Cc3ccc4c5c(ccc4c3O[B-]2(c2ccccc2)c2ccccc2)C=[N+](c2ccc([N+](=O)[O-])cc2)[B-](c2ccccc2)(c2ccccc2)O5)cc1`, the photoluminescence quantum yield is, setting by setting: (in Cc1ccccc1) 0.63; (in ClCCl) 0.48.

Under “in CC#N”, `Cc1ccc2nc3c(=O)[nH]c(=O)[nH]c3nc2c1C` registered a photoluminescence quantum yield of 0.019.

The compound `O=C1c2ccccc2-c2c(-c3cc(Br)ccc3O)[nH]c(=O)n21` gave a photoluminescence quantum yield (in CC#N) of 0.49, a photoluminescence quantum yield (in CO) of 0.32 and a photoluminescence quantum yield (in ClCCl) of 0.61.
